Read-outs that look alike come from different tables or passages of the source.
Tests used:
Format in all cases: in vivo
rice (Oryza sativa) = assay: Test C flooded paddy test plant response; settings: Flood, 250 g ai/ha, scale of 0 to 100 where 0 is no effect and 100 is complete control, 13 to 15 days
Method in brief: (§1)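 2-leaf plants; flood 3 cm, cpd into paddy water; greenhouse 13–15 d; visual score vs untreated, 0 = no effect, 100 = complete control; dash = no result.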

[1] = test system: ducksalad (Heteranthera limosa); assay: Test C flooded paddy test plant response; settings: Flood, 250 g ai/ha, scale of 0 to 100 where 0 is no effect and 100 is complete control, 13 to 15 days
Method in brief: as §1

[2] = test system: small-flower umbrella sedge (Cyperus difformis); assay: Test C flooded paddy test plant response; settings: Flood, 250 g ai/ha, scale of 0 to 100 where 0 is no effect and 100 is complete control, 13 to 15 days
Method in brief: as §1

[3] = test system: barnyardgrass (Echinochloa crus-galli); assay: Test C flooded paddy test plant response; settings: Flood, 250 g ai/ha, scale of 0 to 100 where 0 is no effect and 100 is complete control, 13 to 15 days
Method in brief: as §1

[4] = test system: ragweed (common ragweed, Ambrosia elatior); assay: Test B pre-/postemergence plant response
Method in brief: (§2)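 Visual injury scores on a 0–100 scale (100 = complete control) relative to untreated plants, taken about 10 days post-treatment in greenhouse. Treatments were a directed preemergence soil spray and a postemergence spray at one- to two-leaf stage, using surfactant-containing solvent formulation.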

[5] = test system: giant foxtail (Setaria faberii); assay: Test B pre-/postemergence plant response
Method in brief: as §2

kochia (Kochia scoparia) [6] = assay: Test B pre-/postemergence plant response
Method in brief: as §2

corn (Zea mays) = assay: Test B pre-/postemergence plant response
Method in brief: as §2

[7] = test system: wheat (Triticum aestivum); assay: Test B pre-/postemergence plant response
Method in brief: as §2

[8] = test system: barnyardgrass (Echinochloa crus-galli); assay: Test B pre-/postemergence plant response
Method in brief: as §2

[9] = test system: Italian ryegrass (Lolium multiflorum); assay: Test B pre-/postemergence plant response
Method in brief: as §2

[10] = test system: pigweed (Amaranthus retroflexus); assay: Test B pre-/postemergence plant response
Method in brief: as §2

[11] = test system: blackgrass (Alopecurus myosuroides); assay: Test B postemergence plant response
Method in brief: (§3)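 Visual injury ratings, 0 = no effect to 100 = complete control, versus untreated controls approximately 10 days after postemergence spraying in greenhouse. Plants were at one- to two-leaf stage, 2 to 10 cm tall, in loam soil/sand blend; a dash denotes no result.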

[12] = test system: galium (catchweed bedstraw, Galium aparine); assay: Test B postemergence plant response
Method in brief: as §3

[13] = test system: chickweed (common chickweed, Stellaria media); assay: Test D postemergence plant response
Method in brief: (§4)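 Visual 0–100 rating vs controls (0 = no effect, 100 = complete control), scored 13–15 d after postemergence spray. Plants 1- to 4-leaf stage (2–18 cm), potted in peat/vermiculite mix, kept in greenhouse.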

wild oat (Avena fatua) = assay: Test D postemergence plant response
Method in brief: as §4

kochia (Kochia scoparia) [14] = assay: Test D postemergence plant response
Method in brief: as §4

[15] = 125 g ai/ha, postemergence, 0 to 100 scale, 0 no effect, 100 complete control
[16] = Postemergence, 500 g ai/ha, 0 to 100 scale (0 no effect, 100 complete control)
[17] = Preemergence, 125 g ai/ha, 0 to 100 scale (0 no effect, 100 complete control)
[18] = Preemergence, 500 g ai/ha, 0 to 100 scale where 0 is no effect and 100 is complete control
[19] = 31 g ai/ha, scale 0 to 100 (0 no effect, 100 complete control)
[20] = 62 g ai/ha, scale 0 to 100, 0 no effect, 100 complete control
[21] = 125 g ai/ha, scale 0 to 100, 0 no effect, 100 complete control

Fc1cccc(Oc2ncc(Cl)cn2)c1-c1cc(C(F)(F)F)on1 [Compound 168, 5-chloro-2-[2-[5-(trifluoromethyl)-3-isoxazolyl]-3-fluorophenoxy]pyrimidine]
plant injury at 250 g/ha (rice (Oryza sativa); Oryza sativa, read-out: Rice plant response rating): 40%
pest or weed control at 250 g/ha ([1]; Heteranthera limosa, read-out: Ducksalad plant response rating): 90%
pest or weed control at 250 g/ha ([2]; Cyperus difformis, read-out: Sedge, Umbrella plant response rating): 90%
pest or weed control at 250 g/ha ([3]; Echinochloa crus-galli, read-out: Barnyardgrass plant response rating): 90%
Plant response rating, Ragweed [4, 15]: 90
Plant response rating, Ragweed [4, 16]: 90
Ragweed plant response rating [4, 17]: 70
Plant response rating, Ragweed [4, 18]: 80
Foxtail, Giant plant response rating [5, 17]: 100
pest or weed control at 125 g/ha ([5]; Setaria faberi, post-emergence, 240 h, 125 g ai/ha, postemergence, 0 to 100 scale, 0 no effect, 100 complete control, read-out: Plant response rating, Foxtail, Giant): 100%
pest or weed control at 500 g/ha ([5]; Setaria faberi, post-emergence, 240 h, Postemergence, 500 g ai/ha, 0 to 100 scale (0 no effect, 100 complete control), read-out: Plant response rating, Foxtail, Giant): 100%
pest or weed control at 500 g/ha ([5]; Setaria faberi, pre-emergence, 240 h, Preemergence, 500 g ai/ha, 0 to 100 scale where 0 is no effect and 100 is complete control, read-out: Plant response rating, Foxtail, Giant): 100%
Plant response rating, Kochia (kochia (Kochia scoparia) [6]; [15]): 90
Plant response rating, Kochia (kochia (Kochia scoparia) [6]; [16]): 90
Kochia plant response rating (kochia (Kochia scoparia) [6]; [17]): 100
Plant response rating, Kochia (kochia (Kochia scoparia) [6]; [18]): 100
Corn plant response rating (crop injury, 0 = no effect, 100 = complete kill) at 125 g/ha (corn (Zea mays); Zea mays, post-emergence, 240 h, 125 g ai/ha, postemergence, 0 to 100 scale, 0 no effect, 100 complete control): 100%
Corn plant response rating (crop injury, 0 = no effect, 100 = complete kill) at 500 g/ha (corn (Zea mays); Zea mays, post-emergence, 240 h, Postemergence, 500 g ai/ha, 0 to 100 scale (0 no effect, 100 complete control)): 100%
plant injury at 125 g/ha ([7]; Triticum aestivum, post-emergence, 240 h, 125 g ai/ha, postemergence, 0 to 100 scale, 0 no effect, 100 complete control, read-out: Plant response rating, Wheat): 100%
plant injury at 500 g/ha ([7]; Triticum aestivum, post-emergence, 240 h, Postemergence, 500 g ai/ha, 0 to 100 scale (0 no effect, 100 complete control), read-out: Plant response rating, Wheat): 100%
pest or weed control at 125 g/ha ([8]; Echinochloa crus-galli, post-emergence, 240 h, 125 g ai/ha, postemergence, 0 to 100 scale, 0 no effect, 100 complete control, read-out: Plant response rating, Barnyardgrass): 100%
pest or weed control at 500 g/ha ([8]; Echinochloa crus-galli, post-emergence, 240 h, Postemergence, 500 g ai/ha, 0 to 100 scale (0 no effect, 100 complete control), read-out: Plant response rating, Barnyardgrass): 100%
pest or weed control at 500 g/ha ([8]; Echinochloa crus-galli, pre-emergence, 240 h, Preemergence, 500 g ai/ha, 0 to 100 scale where 0 is no effect and 100 is complete control, read-out: Plant response rating, Barnyardgrass): 100%
Barnyardgrass plant response rating [8, 17]: 100
Plant response rating, Ryegrass, Italian [9, 15]: 90
Plant response rating, Ryegrass, Italian [9, 16]: 90
Ryegrass, Italian plant response rating [9, 17]: 80
Plant response rating, Ryegrass, Italian [9, 18]: 100
pest or weed control at 125 g/ha ([10]; Amaranthus retroflexus, post-emergence, 240 h, 125 g ai/ha, postemergence, 0 to 100 scale, 0 no effect, 100 complete control, read-out: Plant response rating, Pigweed): 100%
pest or weed control at 500 g/ha ([10]; Amaranthus retroflexus, post-emergence, 240 h, Postemergence, 500 g ai/ha, 0 to 100 scale (0 no effect, 100 complete control), read-out: Plant response rating, Pigweed): 100%
pest or weed control at 500 g/ha ([10]; Amaranthus retroflexus, pre-emergence, 240 h, Preemergence, 500 g ai/ha, 0 to 100 scale where 0 is no effect and 100 is complete control, read-out: Plant response rating, Pigweed): 100%
Pigweed plant response rating [10, 17]: 100
Plant response rating, Blackgrass [11, 15]: 90
Plant response rating, Blackgrass [11, 16]: 90
Plant response rating, Galium [12, 15]: 100
Plant response rating, Galium [12, 16]: 100
pest or weed control at 16 g/ha ([13]; Stellaria media, post-emergence, 16 g ai/ha, scale 0 to 100 (0 no effect, 100 complete control), read-out: Chickweed plant response rating): 65%
pest or weed control at 31 g/ha ([13]; Stellaria media, post-emergence, 31 g ai/ha, scale 0 to 100 (0 no effect, 100 complete control), read-out: Chickweed plant response rating): 98%
pest or weed control at 62 g/ha ([13]; Stellaria media, post-emergence, 62 g ai/ha, scale 0 to 100, 0 no effect, 100 complete control, read-out: Plant response rating, Chickweed): 100%
pest or weed control at 125 g/ha ([13]; Stellaria media, post-emergence, 125 g ai/ha, scale 0 to 100, 0 no effect, 100 complete control, read-out: Plant response rating, Chickweed): 100%
pest or weed control at 31 g/ha (wild oat (Avena fatua); Avena fatua, post-emergence, 31 g ai/ha, scale 0 to 100 (0 no effect, 100 complete control), read-out: Oat, Wild plant response rating): 10%
pest or weed control at 62 g/ha (wild oat (Avena fatua); Avena fatua, post-emergence, 62 g ai/ha, scale 0 to 100, 0 no effect, 100 complete control, read-out: Plant response rating, Oat, Wild): 20%
pest or weed control at 125 g/ha (wild oat (Avena fatua); Avena fatua, post-emergence, 125 g ai/ha, scale 0 to 100, 0 no effect, 100 complete control, read-out: Plant response rating, Oat, Wild): 30%
pest or weed control at 31 g/ha (kochia (Kochia scoparia) [14]; Bassia scoparia, post-emergence, 31 g ai/ha, scale 0 to 100 (0 no effect, 100 complete control), read-out: Kochia plant response rating): 100%
pest or weed control at 62 g/ha (kochia (Kochia scoparia) [14]; Bassia scoparia, post-emergence, 62 g ai/ha, scale 0 to 100, 0 no effect, 100 complete control, read-out: Plant response rating, Kochia): 100%
pest or weed control at 125 g/ha (kochia (Kochia scoparia) [14]; Bassia scoparia, post-emergence, 125 g ai/ha, scale 0 to 100, 0 no effect, 100 complete control, read-out: Plant response rating, Kochia): 100%

FC(F)(F)c1cc(-c2c(Cl)cccc2Oc2ncc(Cl)cn2)no1 [Compound 169]
Rice plant response rating (rice (Oryza sativa)): 0
Ducksalad plant response rating [1]: 0
Sedge, Umbrella plant response rating [2]: 0
Barnyardgrass plant response rating [3]: 0
Plant response rating, Ragweed [4, 15]: 20
Plant response rating, Ragweed [4, 16]: 30
Ragweed plant response rating [4, 17]: 10
Plant response rating, Ragweed [4, 18]: 20
Plant response rating, Foxtail, Giant [5, 15]: 30
Plant response rating, Foxtail, Giant [5, 16]: 60
Foxtail, Giant plant response rating [5, 17]: 50
Plant response rating, Foxtail, Giant [5, 18]: 90
Plant response rating, Kochia (kochia (Kochia scoparia) [6]; [15]): 90
Plant response rating, Kochia (kochia (Kochia scoparia) [6]; [16]): 90
Kochia plant response rating (kochia (Kochia scoparia) [6]; [17]): 70
Plant response rating, Kochia (kochia (Kochia scoparia) [6]; [18]): 90
Plant response rating, Corn (corn (Zea mays); [15]): 10
Plant response rating, Corn (corn (Zea mays); [16]): 20
Plant response rating, Wheat [7, 15]: 0
Plant response rating, Wheat [7, 16]: 0
Plant response rating, Barnyardgrass [8, 15]: 10
Plant response rating, Barnyardgrass [8, 16]: 30
Barnyardgrass plant response rating [8, 17]: 20
Plant response rating, Barnyardgrass [8, 18]: 30
Plant response rating, Ryegrass, Italian [9, 15]: 20
Plant response rating, Ryegrass, Italian [9, 16]: 50
Ryegrass, Italian plant response rating [9, 17]: 0
Plant response rating, Ryegrass, Italian [9, 18]: 20
Plant response rating, Pigweed [10, 15]: 100
Plant response rating, Pigweed [10, 16]: 100
Pigweed plant response rating [10, 17]: 100
Plant response rating, Pigweed [10, 18]: 100
Plant response rating, Blackgrass [11, 15]: 50
Plant response rating, Blackgrass [11, 16]: 90
Plant response rating, Galium [12, 15]: 100
Plant response rating, Galium [12, 16]: 100
Chickweed plant response rating ([13]; 16 g ai/ha, scale 0 to 100 (0 no effect, 100 complete control)): 5
Chickweed plant response rating [13, 19]: 40
Plant response rating, Chickweed [13, 20]: 70
Plant response rating, Chickweed [13, 21]: 80
Oat, Wild plant response rating (wild oat (Avena fatua); [19]): 5
Plant response rating, Oat, Wild (wild oat (Avena fatua); [20]): 5
Plant response rating, Oat, Wild (wild oat (Avena fatua); [21]): 10
Kochia plant response rating (kochia (Kochia scoparia) [14]; [19]): 60
Plant response rating, Kochia (kochia (Kochia scoparia) [14]; [20]): 90
Plant response rating, Kochia (kochia (Kochia scoparia) [14]; [21]): 95

From patent US10131652B2, “Pyrimidinyloxy benzene derivatives as herbicides” (E. I. DU PONT DE NEMOURS AND COMPANY, priority 2014, dated 2018)
